This note sets out measurements from patent US20260015358A1, “BICYCLIC DERIVATIVES, COMPOSITIONS AND USES THEREOF” (Danatlas Pharmaceuticals Co., Ltd., priority 2023, published 2026).

The target of assay [1] is T1, WRN [UniPro: Q14191 (WRN_HUMAN), N500-C946] (Homo sapiens (Human), UniProt Q14191). As to the kind of experiment: WRN ATPase assay (ADP-Glo). In kind it is biochemical. Conditions: WRN enzymatic activity assay. (In ADP-Glo the light output rises with the ADP produced.)
The target of assay [2] is T1, WRN [UniPro: Q14191 (WRN_HUMAN), N500-C946]. Nature of the assay: WRN unwinding assay (FORKF DNA, fluorescence). In kind it is biochemical. The note with it: Table 14.

T1 sequence (Q14191 500-946): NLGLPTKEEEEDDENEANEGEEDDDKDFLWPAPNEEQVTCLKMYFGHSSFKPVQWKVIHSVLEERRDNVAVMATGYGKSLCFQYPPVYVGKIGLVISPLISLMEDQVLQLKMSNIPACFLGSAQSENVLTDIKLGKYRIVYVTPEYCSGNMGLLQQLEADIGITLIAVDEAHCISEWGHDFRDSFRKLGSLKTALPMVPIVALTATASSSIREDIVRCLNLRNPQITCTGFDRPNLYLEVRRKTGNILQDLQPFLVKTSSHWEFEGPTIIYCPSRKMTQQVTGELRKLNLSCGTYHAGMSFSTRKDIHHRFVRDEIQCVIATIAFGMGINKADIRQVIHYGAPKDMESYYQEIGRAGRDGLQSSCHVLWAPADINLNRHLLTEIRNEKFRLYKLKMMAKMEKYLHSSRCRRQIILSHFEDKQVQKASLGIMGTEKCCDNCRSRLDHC

For the compound `CCc1c(N2CCN(C(=O)CNC(=O)c3cnc4c(ccn4C)c3O)CC2)c(=O)n2nc(C3=CCOCC3)nc2n1CC(=O)Nc1ccc(C(F)(F)F)cc1Cl` [Example 120, N-(2-(4-(4-(2-((2-Chloro-4-(trifluoromethyl)phenyl)amino)-2-oxoethyl)-2-(3,6-dihydro-2H-pyran-4-yl)-5-ethyl-7-oxo-4,7-dihydro-[1,2,4]triazolo[1,5-a]pyrimidin-6-yl)piperazin-1-yl)-2-oxoethyl)-4-hydroxy-1-methyl-1H-pyrrolo[2,3-b]pyridine-5-carboxamide], the IC50 in assay [1] is 100 to 1000 nM; in assay [2], < 100 nM.

In the case of `CCc1c(N2CCN(C(=O)CNC(=O)c3c[nH]cn3)CC2)c(=O)n2nc(C3=CCOCC3)nc2n1CC(=O)Nc1ccc(C(F)(F)F)cc1Cl` [Example 121, N-(2-(4-(4-(2-((2-Chloro-4-(trifluoromethyl)phenyl)amino)-2-oxoethyl)-2-(3,6-dihydro-2H-pyran-4-yl)-5-ethyl-7-oxo-4,7-dihydro-[1,2,4]triazolo[1,5-a]pyrimidin-6-yl)piperazin-1-yl)-2-oxoethyl)-1H-imidazole-4-carboxamide], the IC50 in assay [1] and in assay [2] was < 100 nM each time.

With `CCc1c(N2CCN(C(=O)CNC(=O)c3cc(C)ns3)CC2)c(=O)n2nc(C3=CCOCC3)nc2n1CC(=O)Nc1ccc(C(F)(F)F)cc1Cl` [Example 122, N-(2-(4-(4-(2-((2-Chloro-4-(trifluoromethyl)phenyl)amino)-2-oxoethyl)-2-(3,6-dihydro-2H-pyran-4-yl)-5-ethyl-7-oxo-4,7-dihydro-[1,2,4]triazolo[1,5-a]pyrimidin-6-yl)piperazin-1-yl)-2-oxoethyl)-3-methylisothiazole-5-carboxamide], the IC50 in assay [1] and in assay [2] was < 100 nM in each case.

As for `CCc1c(N2CCN(C(=O)CNC(=O)c3ncco3)CC2)c(=O)n2nc(C3=CCOCC3)nc2n1CC(=O)Nc1ccc(C(F)(F)F)cc1Cl` [Example 123, N-(2-(4-(4-(2-((2-Chloro-4-(trifluoromethyl)phenyl)amino)-2-oxoethyl)-2-(3,6-dihydro-2H-pyran-4-yl)-5-ethyl-7-oxo-4,7-dihydro-[1,2,4]triazolo[1,5-a]pyrimidin-6-yl)piperazin-1-yl)-2-oxoethyl)oxazole-2-carboxamide], the 50% inhibitory concentration (IC50) in assay [1] and in assay [2] was < 100 nM throughout.

Consider `CCc1c(N2CCN(C(=O)CNC(=O)c3c(F)cccc3F)CC2)c(=O)n2nc(C3=CCOCC3)nc2n1CC(=O)Nc1ccc(C(F)(F)F)cc1Cl` [Example 124, N-(2-(4-(4-(2-((2-Chloro-4-(trifluoromethyl)phenyl)amino)-2-oxoethyl)-2-(3,6-dihydro-2H-pyran-4-yl)-5-ethyl-7-oxo-4,7-dihydro-[1,2,4]triazolo[1,5-a]pyrimidin-6-yl)piperazin-1-yl)-2-oxoethyl)-2,6-difluorobenzamide], for which the IC50 in assay [1] and in assay [2] was < 100 nM in each case.

In the case of `CCc1c(N2CCN(C(=O)CNC(=O)c3c(Cl)cccc3Cl)CC2)c(=O)n2nc(C3=CCOCC3)nc2n1CC(=O)Nc1ccc(C(F)(F)F)cc1Cl` [Example 125, 2,6-Dichloro-N-(2-(4-(4-(2-((2-chloro-4-(trifluoromethyl)phenyl)amino)-2-oxoethyl)-2-(3,6-dihydro-2H-pyran-4-yl)-5-ethyl-7-oxo-4,7-dihydro-[1,2,4]triazolo[1,5-a]pyrimidin-6-yl)piperazin-1-yl)-2-oxoethyl)benzamide], the results for the IC50 in assay [1] and in assay [2] were 100 to 1000 nM and < 100 nM, respectively.

On to `CCc1c(N2CCN(C(=O)CNC(=O)c3cc(Cl)ccc3Cl)CC2)c(=O)n2nc(C3=CCOCC3)nc2n1CC(=O)Nc1ccc(C(F)(F)F)cc1Cl` [Example 126, 2,5-Dichloro-N-(2-(4-(4-(2-((2-chloro-4-(trifluoromethyl)phenyl)amino)-2-oxoethyl)-2-(3,6-dihydro-2H-pyran-4-yl)-5-ethyl-7-oxo-4,7-dihydro-[1,2,4]triazolo[1,5-a]pyrimidin-6-yl)piperazin-1-yl)-2-oxoethyl)benzamide], for which the IC50 in assay [1] and in assay [2] was < 100 nM throughout.

On to `CCc1c(N2CCN(C(=O)CNC(=O)c3ncc(C)s3)CC2)c(=O)n2nc(C3=CCOCC3)nc2n1CC(=O)Nc1ccc(C(F)(F)F)cc1Cl` [Example 128, N-(2-(4-(4-(2-((2-Chloro-4-(trifluoromethyl)phenyl)amino)-2-oxoethyl)-2-(3,6-dihydro-2H-pyran-4-yl)-5-ethyl-7-oxo-4,7-dihydro-[1,2,4]triazolo[1,5-a]pyrimidin-6-yl)piperazin-1-yl)-2-oxoethyl)-5-methylthiazole-2-carboxamide], for which the concentration for half-maximal inhibition (IC50) was 100 to 1000 nM in assay [1] and < 100 nM in assay [2].

On to `CCc1c(N2CCN(C(=O)CNC(=O)c3cscn3)CC2)c(=O)n2nc(C3=CCOCC3)nc2n1CC(=O)Nc1ccc(C(F)(F)F)cc1Cl` [Example 129, N-(2-(4-(4-(2-((2-Chloro-4-(trifluoromethyl)phenyl)amino)-2-oxoethyl)-2-(3,6-dihydro-2H-pyran-4-yl)-5-ethyl-7-oxo-4,7-dihydro-[1,2,4]triazolo[1,5-a]pyrimidin-6-yl)piperazin-1-yl)-2-oxoethyl)thiazole-4-carboxamide], for which the IC50 in assay [1] and in assay [2] was < 100 nM throughout.

As for `CCc1c(N2CCN(C(=O)CNC(=O)c3cc(C)no3)CC2)c(=O)n2nc(C3=CCOCC3)nc2n1CC(=O)Nc1ccc(C(F)(F)F)cc1Cl` [Example 130, N-(2-(4-(4-(2-((2-Chloro-4-(trifluoromethyl)phenyl)amino)-2-oxoethyl)-2-(3,6-dihydro-2H-pyran-4-yl)-5-ethyl-7-oxo-4,7-dihydro-[1,2,4]triazolo[1,5-a]pyrimidin-6-yl)piperazin-1-yl)-2-oxoethyl)-3-methylisoxazole-5-carboxamide], the IC50 in assay [1] and in assay [2] was < 100 nM each time.

With `CCc1c(N2CCN(C(=O)CNC(=O)c3cnc(C)s3)CC2)c(=O)n2nc(C3=CCOCC3)nc2n1CC(=O)Nc1ccc(C(F)(F)F)cc1Cl` [Example 131, N-(2-(4-(4-(2-((2-Chloro-4-(trifluoromethyl)phenyl)amino)-2-oxoethyl)-2-(3,6-dihydro-2H-pyran-4-yl)-5-ethyl-7-oxo-4,7-dihydro-[1,2,4]triazolo[1,5-a]pyrimidin-6-yl)piperazin-1-yl)-2-oxoethyl)-2-methylthiazole-5-carboxamide], the concentration for half-maximal inhibition (IC50) was 100 to 1000 nM in assay [1] and < 100 nM in assay [2].

On to `CCc1c(N2CCN(C(=O)CNC(=O)c3ccc(F)c(F)c3)CC2)c(=O)n2nc(C3=CCOCC3)nc2n1CC(=O)Nc1ccc(C(F)(F)F)cc1Cl` [Example 132, N-(2-(4-(4-(2-((2-Chloro-4-(trifluoromethyl)phenyl)amino)-2-oxoethyl)-2-(3,6-dihydro-2H-pyran-4-yl)-5-ethyl-7-oxo-4,7-dihydro-[1,2,4]triazolo[1,5-a]pyrimidin-6-yl)piperazin-1-yl)-2-oxoethyl)-3,4-difluorobenzamide], for which the half-inhibitory concentration (IC50) in assay [1] and in assay [2] was < 100 nM in each case.

With `CCc1c(N2CCN(C(=O)CNC(=O)c3ncccc3F)CC2)c(=O)n2nc(C3=CCOCC3)nc2n1CC(=O)Nc1ccc(C(F)(F)F)cc1Cl` [Example 133, N-(2-(4-(4-(2-((2-Chloro-4-(trifluoromethyl)phenyl)amino)-2-oxoethyl)-2-(3,6-dihydro-2H-pyran-4-yl)-5-ethyl-7-oxo-4,7-dihydro-[1,2,4]triazolo[1,5-a]pyrimidin-6-yl)piperazin-1-yl)-2-oxoethyl)-3-fluoropicolinamide], the IC50 in assay [1] and in assay [2] was < 100 nM in each case.

Take `CCc1c(N2CCN(C(=O)CNC)CC2)c(=O)n2nc(C3=CCOCC3)nc2n1CC(=O)Nc1ccc(C(F)(F)F)cc1Cl` [Example 134, N-(2-Chloro-4-(trifluoromethyl)phenyl)-2-(2-(3,6-dihydro-2H-pyran-4-yl)-5-ethyl-6-(4-(methylglycyl)piperazin-1-yl)-7-oxo-[1,2,4]triazolo[1,5-a]pyrimidin-4(7H)-yl)acetamide]: the IC50 in assay [1] and in assay [2] was < 100 nM each time.

For `CCc1c(N2CCN(C(=O)C(C)NC(=O)c3ccccc3)CC2)c(=O)n2nc(C3=CCOCC3)nc2n1CC(=O)Nc1ccc(C(F)(F)F)cc1Cl` (stereo not drawn) [Example 136, N-(1-(4-(4-(2-((2-Chloro-4-(trifluoromethyl)phenyl)amino)-2-oxoethyl)-2-(3,6-dihydro-2H-pyran-4-yl)-5-ethyl-7-oxo-4,7-dihydro-[1,2,4]triazolo[1,5-a]pyrimidin-6-yl)piperazin-1-yl)-1-oxopropan-2-yl)benzamide], the IC50 is < 100 nM in assay [1] and 100 to 1000 nM in assay [2].

As to `[2H]C([2H])(NC(=O)c1ccccc1F)C(=O)N1CCN(c2c(CC)n(CC(=O)Nc3ccc(C(F)(F)F)cc3Cl)c3nc(N4CCOCC4)nn3c2=O)CC1` [Example 138, N-(2-(4-(4-(2-((2-Chloro-4-(trifluoromethyl)phenyl)amino)-2-oxoethyl)-5-ethyl-2-morpholino-7-oxo-4,7-dihydro-[1,2,4]triazolo[1,5-a]pyrimidin-6-yl)piperazin-1-yl)-2-oxoethyl-1,1-d2)-2-fluorobenzamide], the IC50 in assay [1] and in assay [2] was < 100 nM in each case.

On to `CCc1c(N2CCC(NC(=O)CNC(=O)c3ccccc3)CC2)c(=O)n2nc(C3=CCOCC3)nc2n1CC(=O)Nc1ccc(C(F)(F)F)cc1Cl` [Example 141, N-(2-((1-(4-(2-((2-Chloro-4-(trifluoromethyl)phenyl)amino)-2-oxoethyl)-2-(3,6-dihydro-2H-pyran-4-yl)-5-ethyl-7-oxo-4,7-dihydro-[1,2,4]triazolo[1,5-a]pyrimidin-6-yl)piperidin-4-yl)amino)-2-oxoethyl)benzamide], for which the IC50 in assay [1] and in assay [2] was > 1000 nM each time.

For `CCc1c(N2CCN(C(=O)CNC(=O)c3ccccc3)CC2)c(=O)n2nc(C3=CCOCC3)nc2n1CC(=O)N(C)c1ccc(C(F)(F)F)cc1Cl` [Example 143, N-(2-(4-(4-(2-((2-Chloro-4-(trifluoromethyl)phenyl)(methyl)amino)-2-oxoethyl)-2-(3,6-dihydro-2H-pyran-4-yl)-5-ethyl-7-oxo-4,7-dihydro-[1,2,4]triazolo[1,5-a]pyrimidin-6-yl)piperazin-1-yl)-2-oxoethyl)benzamide], the IC50 in assay [1] is 100 to 1000 nM; in assay [2] it was > 1000 nM.

For orientation: IC50 means the concentration needed to halve the response being measured. A high value points to weaker potency.
